Among the data in BindingDB's records for doi:10.1021/jm00093a008 (Technical University of Denmark, 1992) are IC50 values, retold here.

A short description of the first assay: Concentration inhibiting Clostridium histolyticum collagenase.
With `COC1C(O[C@@H]2c3c(cc4c(c3O)C(=O)c3c(O)cccc3C4=O)C(=O)[C@@](C)(O)[C@H]2OC)OC(C)C(O)C1O` (stereo not given in full), the IC50 was found to be 370 nM. In other words, the sub-micromolar range.

For the compound `COC1C(O[C@@H]2c3c(cc4c(c3O)C(=O)c3c(O)c(N(C)C)cc(N(C)C)c3C4=O)C(=O)[C@@](C)(O)[C@H]2OC)OC(C)C(O)C1O` (stereo not given in full), the concentration for half-maximal inhibition (IC50) is over 100000 nM.

On to `COC1C(O[C@@H]2c3c(cc4c(c3O)C(=O)c3c(O)cccc3C4=O)C(=O)[C@](C)(O)[C@H]2OC)OC(C)C(O)C1O` (stereo not given in full), for which half-maximal inhibition (IC50) was put at 3000 nM. On the same count and under the same terms, under `COC1C(O[C@@H]2c3c(cc4c(c3O)C(=O)c3c(O)cccc3C4=O)C(=O)[C@@](C)(O)[C@H]2OC)OC(C)C(O)C1O[Si](C)(C)C(C)(C)C` (stereo not given in full) stands 17000 nM. The same measure, in the same setting: to `COC1C(O[C@@H]2c3c(cc4c(c3O)C(=O)c3c(ccc(N(C)C)c3O)C4=O)C(=O)[C@@](C)(O)[C@H]2OC)OC(C)C(O)C1O` (stereo not given in full) belongs 2000 nM; to `CO[C@H]1[C@H](O)c2c(cc3c(c2O)C(=O)c2c(O)cccc2C3=O)C(=O)[C@@]1(C)O`, 19000 nM. Still for that read-out and setting: under `CCOP(=O)(OCC)O[C@]1(C)C(=O)c2cc3c(c(O)c2[C@@H](OC2OC(C)C(O)C(O)C2OC)[C@@H]1OC)C(=O)c1c(O)cccc1C3=O` (stereo not given in full) stands 220 nM; under `COC1C(O[C@@H]2c3c(cc4c(c3O)C(=O)c3c(O)cccc3C4=O)C(=O)[C@@](C)(O)[C@H]2OC)OC(C)C(OC(C)=O)C1OC(C)=O` (stereo not given in full), over 100000 nM; under `COC1C(C)OC(O[C@@H]2c3c(cc4c(c3O)C(=O)c3c(O)cccc3C4=O)C(=O)[C@@](C)(O)[C@H]2OC)C(OC)C1OC` (stereo not given in full), 670 nM.

Test in a further assay: as above
The source holds these as a separate data set.
With `CC[C@@]1(O)C[C@H](O[C@H]2C[C@H](N(C)C)[C@H](O[C@H]3C[C@H](O)[C@H](O[C@H]4CCC(=O)[C@H](C)O4)[C@H](C)O3)[C@H](C)O2)c2c(cc3c(c2O)C(=O)c2c(O)cccc2C3=O)[C@H]1C(=O)OC` [ACLACINOMYCIN A], the concentration for half-maximal inhibition (IC50) was found to be 9900 nM.
